# Source: patent publication US9902702B2, “Spirocycloheptanes as inhibitors of rock” (BRISTOL-MYERS SQUIBB COMPANY, priority 2014, dated 2018)
# Biological target: ROCK2 (Homo sapiens, UniProt O75116)
# Experiment: ROCK assay: phosphorylation of FITC peptide substrate, LABCHIP 3000 mobility shift
# Type: biochemical
# Conditions: 5 μM ATP, 1.5 μM peptide substrate; read-out: ROCK2 Activity (ROCK IC50 range)
# Procedure: The effectiveness of compounds of the present invention as ROCK inhibitors can be determined in a 30 μL assay containing 20 mM HEPES, pH 7.5, 20 mM MgCl2, 0.015% Brij-35, 4 mM DTT, 5 μM ATP and 1.5 μM peptide substrate (FITC-AHA-AKRRRLSSLRA-OH). Compounds were dissolved in DMSO so that the final concentration of DMSO was <2%, and the reaction was initiated with Rho kinase variants. After incubation, the reaction was terminated by the addition of EDTA and the phosphorylated and non-phosphorylated peptides separated using a LABCHIP® 3000 Reader (Caliper Life Sciences). […] Compounds were tested in dose-response format, and the inhibition of kinase activity was calculated at each concentration of compound. The inhibition data were fit using a curve-fitting program to determine the IC50; i.e., the concentration of compound required to inhibit 50% of kinase activity.
# Representative Examples were tested in the ROCK assay described above and found having ROCK inhibitory activity.
# ROCK2, sequence (O75116 whole entry, species assumed): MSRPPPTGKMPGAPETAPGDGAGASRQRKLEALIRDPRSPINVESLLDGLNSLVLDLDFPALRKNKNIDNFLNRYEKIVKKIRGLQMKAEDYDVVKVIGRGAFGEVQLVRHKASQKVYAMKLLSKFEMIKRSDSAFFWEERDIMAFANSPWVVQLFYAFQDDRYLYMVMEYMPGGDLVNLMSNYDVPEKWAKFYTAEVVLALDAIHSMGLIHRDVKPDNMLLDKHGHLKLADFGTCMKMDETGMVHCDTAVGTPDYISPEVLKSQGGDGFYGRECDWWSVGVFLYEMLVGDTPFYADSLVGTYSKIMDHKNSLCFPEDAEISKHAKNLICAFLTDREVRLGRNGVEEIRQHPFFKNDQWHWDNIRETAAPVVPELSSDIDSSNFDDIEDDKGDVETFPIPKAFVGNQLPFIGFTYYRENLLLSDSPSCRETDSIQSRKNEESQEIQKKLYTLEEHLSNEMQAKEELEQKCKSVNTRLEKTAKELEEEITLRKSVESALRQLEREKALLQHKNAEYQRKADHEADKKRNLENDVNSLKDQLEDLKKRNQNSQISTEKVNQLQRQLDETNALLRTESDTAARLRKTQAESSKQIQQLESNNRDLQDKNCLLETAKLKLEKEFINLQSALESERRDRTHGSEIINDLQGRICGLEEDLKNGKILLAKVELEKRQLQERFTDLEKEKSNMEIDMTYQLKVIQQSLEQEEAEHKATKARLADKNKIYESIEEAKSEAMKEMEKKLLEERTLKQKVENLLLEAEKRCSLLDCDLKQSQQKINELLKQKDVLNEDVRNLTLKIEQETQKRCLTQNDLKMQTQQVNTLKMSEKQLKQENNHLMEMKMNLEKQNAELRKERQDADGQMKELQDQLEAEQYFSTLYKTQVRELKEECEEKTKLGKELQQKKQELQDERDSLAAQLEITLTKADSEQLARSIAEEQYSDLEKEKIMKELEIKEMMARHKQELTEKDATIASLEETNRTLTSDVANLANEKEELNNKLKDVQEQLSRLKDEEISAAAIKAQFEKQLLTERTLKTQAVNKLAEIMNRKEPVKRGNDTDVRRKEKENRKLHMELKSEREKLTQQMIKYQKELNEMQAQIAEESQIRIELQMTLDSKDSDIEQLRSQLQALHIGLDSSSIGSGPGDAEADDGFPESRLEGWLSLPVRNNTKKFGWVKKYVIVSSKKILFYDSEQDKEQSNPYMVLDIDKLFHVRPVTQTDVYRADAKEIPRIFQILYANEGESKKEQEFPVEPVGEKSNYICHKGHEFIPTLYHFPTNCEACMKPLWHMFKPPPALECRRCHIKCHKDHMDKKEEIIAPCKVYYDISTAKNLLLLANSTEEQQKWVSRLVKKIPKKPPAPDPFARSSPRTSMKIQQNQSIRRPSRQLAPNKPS
row,SMILES,IC50
1,"CC(C)(O)Cn1nc(C(=O)NC2CC3(C2)CC(c2n[nH]c(=O)c4ccccc24)C3)c2cc(F)ccc21 [Example 65, 5-fluoro-1-(2-hydroxy-2-methylpropyl)-N-((aR)-6-(4-oxo-3,4-dihydrophthalazin-1-yl)spiro[3.3]heptan-2-yl)-1H-indazole-3-carboxamide]",2.01 to 5 nM
2,"CC(C)(O)Cn1cc(C(=O)NC2CC3(C2)CC(c2n[nH]c(=O)c4ccccc24)C3)c2cccnc21 [Example 66, 1-(2-hydroxy-2-methylpropyl)-N-((aR)-6-(4-oxo-3,4-dihydrophthalazin-1-yl)spiro[3.3]heptan-2-yl)-1H-pyrrolo[2,3-b]pyridine-3-carboxamide]",5.1 to 15 nM
3,"CC(C)(O)COc1ccc2c(C(=O)NC3CC4(C3)CC(c3n[nH]c(=O)c5ccccc35)C4)cnn2c1 [Example 67, 6-(2-hydroxy-2-methylpropoxy)-N-((aR)-6-(4-oxo-3,4-dihydrophthalazin-1-yl)spiro[3.3]heptan-2-yl)pyrazolo[1,5-a]pyridine-3-carboxamide]",2.01 to 5 nM
4,"O=C(NC1CC2(C1)CC(c1n[nH]c(=O)c3ccccc13)C2)c1cnn2cc(OCCN3CCOCC3)ccc12 [Example 68, 6-(2-morpholinoethoxy)-N-((aR)-6-(4-oxo-3,4-dihydrophthalazin-1-yl)spiro[3.3]heptan-2-yl)pyrazolo[1,5-a]pyridine-3-carboxamide]",2.01 to 5 nM
5,"O=C(NC1CC2(C1)CC(c1n[nH]c(=O)c3ccccc13)C2)c1cnc(N2CCOCC2)s1 [Example 69, 2-morpholino-N-((aR)-6-(4-oxo-3,4-dihydrophthalazin-1-yl)spiro[3.3]heptan-2-yl)thiazole-5-carboxamide]",2.01 to 5 nM
6,"O=C(NC1CC2(C1)CC(c1n[nH]c(=O)c3ccccc13)C2)c1cnc(N2CCCC2)s1 [Example 70, N-((aR)-6-(4-oxo-3,4-dihydrophthalazin-1-yl)spiro[3.3]heptan-2-yl)-2-(pyrrolidin-1-yl)thiazole-5-carboxamide]",2.01 to 5 nM
7,"O=C(NC1CC2(C1)CC(c1n[nH]c(=O)c3ccccc13)C2)c1noc2ccccc12 [Example 71, N-((aR)-6-(4-oxo-3,4-dihydrophthalazin-1-yl)spiro[3.3]heptan-2-yl)benzo[d]isoxazole-3-carboxamide]",5.1 to 15 nM
8,"CC(C)(O)Cn1cc(C(=O)NC2CC3(C2)CC(c2n[nH]c(=O)c4ccccc24)C3)c2ccccc21 [Example 72, 1-(2-hydroxy-2-methylpropyl)-N-((aR)-6-(4-oxo-3,4-dihydrophthalazin-1-yl)spiro[3.3]heptan-2-yl)-1H-indole-3-carboxamide]",0.2 to 2 nM
9,"O=C(NC1CC2(C1)CC(c1n[nH]c(=O)c3ccccc13)C2)c1cnn2ccc(OCCN3CCOCC3)cc12 [Example 73, 5-(2-morpholinoethoxy)-N-((aR)-6-(4-oxo-3,4-dihydrophthalazin-1-yl)spiro[3.3]heptan-2-yl)pyrazolo[1,5-a]pyridine-3-carboxamide]",2.01 to 5 nM
10,"O=C(NC1CC2(C1)CC(c1n[nH]c(=O)c3ccccc13)C2)c1cnn2ccccc12 [Example 74, N-((aR)-6-(4-oxo-3,4-dihydrophthalazin-1-yl)spiro[3.3]heptan-2-yl)pyrazolo[1,5-a]pyridine-3-carboxamide]",2.01 to 5 nM
11,"COCC(O)COc1ccn2ncc(C(=O)NC3CC4(C3)CC(c3n[nH]c(=O)c5ccccc35)C4)c2c1 [Example 75, 5-(2-hydroxy-3-methoxypropoxy)-N-((aR)-6-(4-oxo-3,4-dihydrophthalazin-1-yl)spiro[3.3]heptan-2-yl)pyrazolo[1,5-a]pyridine-3-carboxamide]",15.1 to 100 nM
12,"O=C(NC1CC2(C1)CC(c1n[nH]c(=O)c3ccccc13)C2)c1cnn2cc(N3CCOCC3)ccc12 [Example 76, 6-morpholino-N-((aR)-6-(4-oxo-3,4-dihydrophthalazin-1-yl)spiro[3.3]heptan-2-yl)pyrazolo[1,5-a]pyridine-3-carboxamide]",2.01 to 5 nM
13,"O=C(NC1CC2(C1)CC(c1n[nH]c(=O)c3ccccc13)C2)c1cnn2ccc(OCCO)cc12 [Example 77, 5-(2-hydroxyethoxy)-N-((aR)-6-(4-oxo-3,4-dihydrophthalazin-1-yl)spiro[3.3]heptan-2-yl)pyrazolo[1,5-a]pyridine-3-carboxamide]",15.1 to 100 nM
14,"O=C(NC1CC2(C1)CC(c1n[nH]c(=O)c3ccccc13)C2)c1onc2ccccc12 [Example 78, N-((aR)-6-(4-oxo-3,4-dihydrophthalazin-1-yl)spiro[3.3]heptan-2-yl)benzo[c]isoxazole-3-carboxamide]",5.1 to 15 nM
15,"O=C(NC1CC2(C1)CC(c1n[nH]c(=O)c3ccccc13)C2)c1cnn2cc(OC(F)F)ccc12 [Example 79, 6-(difluoromethoxy)-N-((aR)-6-(4-oxo-3,4-dihydrophthalazin-1-yl)spiro[3.3]heptan-2-yl)pyrazolo[1,5-a]pyridine-3-carboxamide]",2.01 to 5 nM
16,"O=C(NC1CC2(C1)CC(c1n[nH]c(=O)c3ccccc13)C2)c1cnn2cc(OCC(F)F)ccc12 [Example 80, 6-(2,2-difluoroethoxy)-N-((aR)-6-(4-oxo-3,4-dihydrophthalazin-1-yl)spiro[3.3]heptan-2-yl)pyrazolo[1,5-a]pyridine-3-carboxamide]",0.2 to 2 nM
17,"O=C(NC1CC2(C1)CC(c1n[nH]c(=O)c3ccccc13)C2)c1cnn2cc(OCCn3cccn3)ccc12 [Example 81, 6-(2-(1H-pyrazol-1-yl)ethoxy)-N-((aR)-6-(4-oxo-3,4-dihydrophthalazin-1-yl)spiro[3.3]heptan-2-yl)pyrazolo[1,5-a]pyridine-3-carboxamide]",0.2 to 2 nM
18,"O=C(NC1CC2(C1)CC(c1n[nH]c(=O)c3ccccc13)C2)c1cnn2cc(N3CCC(F)(F)CC3)ccc12 [Example 82, 6-(4,4-difluoropiperidin-1-yl)-N-((aR)-6-(4-oxo-3,4-dihydrophthalazin-1-yl)spiro[3.3]heptan-2-yl)pyrazolo[1,5-a]pyridine-3-carboxamide]",2.01 to 5 nM
19,"O=C(NC1CC2(C1)CC(c1n[nH]c(=O)c3ccccc13)C2)c1cnn2cc(OCCN3CCCC3)ccc12 [Example 83, N-((aR)-6-(4-oxo-3,4-dihydrophthalazin-1-yl)spiro[3.3]heptan-2-yl)-6-(2-(pyrrolidin-1-yl)ethoxy)pyrazolo[1,5-a]pyridine-3-carboxamide]",0.2 to 2 nM
20,"O=C(NC1CC2(C1)CC(c1n[nH]c(=O)c3ccccc13)C2)c1cnn2ccc(N3CCOCC3)cc12 [Example 84, 5-morpholino-N-((aR)-6-(4-oxo-3,4-dihydrophthalazin-1-yl)spiro[3.3]heptan-2-yl)pyrazolo[1,5-a]pyridine-3-carboxamide]",5.1 to 15 nM
21,"Cn1cc(-c2ccn3ncc(C(=O)NC4CC5(C4)CC(c4n[nH]c(=O)c6ccccc46)C5)c3c2)cn1 [Example 85, 5-(1-methyl-1H-pyrazol-4-yl)-N-((aR)-6-(4-oxo-3,4-dihydrophthalazin-1-yl)spiro[3.3]heptan-2-yl)pyrazolo[1,5-a]pyridine-3-carboxamide]",2.01 to 5 nM
22,"CN1CCN(c2ccc3c(C(=O)NC4CC5(C4)CC(c4n[nH]c(=O)c6ccccc46)C5)cnn3c2)CC1 [Example 86, 6-(4-methylpiperazin-1-yl)-N-((aR)-6-(4-oxo-3,4-dihydrophthalazin-1-yl)spiro[3.3]heptan-2-yl)pyrazolo[1,5-a]pyridine-3-carboxamide]",0.2 to 2 nM
23,"O=C(NC1CC2(C1)CC(c1n[nH]c(=O)c3ccccc13)C2)c1cnn2cc(N3CCCC3)ccc12 [Example 87, N-((aR)-6-(4-oxo-3,4-dihydrophthalazin-1-yl)spiro[3.3]heptan-2-yl)-6-(pyrrolidin-1-yl)pyrazolo[1,5-a]pyridine-3-carboxamide]",0.2 to 2 nM
24,"O=C(NC1CC2(C1)CC(c1n[nH]c(=O)c3ccccc13)C2)c1cnn2cc(N3CCC(F)C3)ccc12 [Example 88, 6-((R)-3-fluoropyrrolidin-1-yl)-N-((aR)-6-(4-oxo-3,4-dihydrophthalazin-1-yl)spiro[3.3]heptan-2-yl)pyrazolo[1,5-a]pyridine-3-carboxamide]",0.2 to 2 nM
25,"O=C(NC1CC2(C1)CC(c1n[nH]c(=O)c3ccccc13)C2)c1cnn2cc(N3CCC(F)C3)ccc12 [Example 89, 6-((S)-3-fluoropyrrolidin-1-yl)-N-((aR)-6-(4-oxo-3,4-dihydrophthalazin-1-yl)spiro[3.3]heptan-2-yl)pyrazolo[1,5-a]pyridine-3-carboxamide]",0.2 to 2 nM
26,"O=C(NC1CC2(C1)CC(c1n[nH]c(=O)c3ccccc13)C2)c1cnn2cc(N3CCC(F)(F)C3)ccc12 [Example 90, 6-(3,3-difluoropyrrolidin-1-yl)-N-((aR)-6-(4-oxo-3,4-dihydrophthalazin-1-yl)spiro[3.3]heptan-2-yl)pyrazolo[1,5-a]pyridine-3-carboxamide]",0.2 to 2 nM
27,"O=C(NC1CC2(C1)CC(c1n[nH]c(=O)c3ccccc13)C2)c1cnn2cc(N3CC(F)C3)ccc12 [Example 91, 6-(3-fluoroazetidin-1-yl)-N-((aR)-6-(4-oxo-3,4-dihydrophthalazin-1-yl)spiro[3.3]heptan-2-yl)pyrazolo[1,5-a]pyridine-3-carboxamide]",0.2 to 2 nM
28,"O=C(NC1CC2(C1)CC(c1n[nH]c(=O)c3ccccc13)C2)c1cnn2cc(N3CC(F)(F)C3)ccc12 [Example 92, 6-(3,3-difluoroazetidin-1-yl)-N-((aR)-6-(4-oxo-3,4-dihydrophthalazin-1-yl)spiro[3.3]heptan-2-yl)pyrazolo[1,5-a]pyridine-3-carboxamide]",0.2 to 2 nM
29,"O=C(NC1CC2(C1)CC(c1n[nH]c(=O)c3ccccc13)C2)c1cn2c(n1)sc1ccccc12 [Example 93, N-((aR)-6-(4-oxo-3,4-dihydrophthalazin-1-yl)spiro[3.3]heptan-2-yl)benzo[d]imidazo[2,1-b]thiazole-2-carboxamide]",2.01 to 5 nM
